Measurements from patent publication US8906381B2, “Immunonanotherapeutics that provide IGG humoral response without T-cell antigen” (Massachusetts Institute of Technology, priority 2008, dated 2014).

Columns and labels:
[1] = system: anti-nicotine IgG; assay: Anti-nicotine IgG in immunized mice (ELISA); format: in vivo, C57BL6 mice; conditions: data of FIGS. 34 and 35
[2] = system: CD4 T cells from OT-II donor mice; assay: In vivo CD4 T cell activation (CFSE-labeled OT-II cells); design: species or system C57BL6J mice; conditions: three days after footpad immunization; CpG adjuvant
Experimental: Subsequently, immunization experiments were performed by injecting one footpad with free OVA or with nanoparticles composed of either PLA or PLGA that encapsulated an equivalent amount of OVA as a model antigen. All antigenic mixtures also contained CpG (a TLR9 agonist) as an adjuvant. The animals were injected, sacrificed three days after immunization, and OT-II T cell activation was assessed by flow cytometry in single-cell suspensions from different tissues.
By contrast, activated T cells divide and in the process split the fluorescent dye evenly between the two daughter cells resulting in an incremental decrease in fluorescence intensity upon each successive division. Thus, the greater the left shift in CFSE, fluorescence the stronger T cells were activated.

Molecule	production of nicotine antibodies [1]	local T cell proliferation in distal lymphoid tissues (brachial lymph node, spleen) [2]
CN1CCCC1c1cccnc1 (centres unmarked) [free nicotine, nicotine]	does not elicit the production of nicotine antibodies	–
free OVA: free chicken ovalbumin (OVA) model antigen, mixed with CpG adjuvant	–	only undivided cells or cells with very low CFSE content
